Test results from patent publication US7576177B2, “Hsp peptides and analogs for modulation of immune responses via antigen presenting cells” (Andromeda Biotech Ltd., priority 2002, dated 2009).

What was measured:
[1] = tested on: peripheral blood mononuclear cells cultured with GM-CSF and IL4 (dendritic cells); assay: Peripheral blood derived dendritic cells: secreted cytokines (IP-10, IL-8) and cell surface antigens (CD83, CD86); format: cell-based, human
Description: The effect of the compositions of the present invention on peripheral blood derived dendritic cells, was tested according to a protocol described by Re, F. and Strominger, J. L. 2001. Toll-like receptor 2 (Tlr2) and Tlr4 differentially activate human dendritic cells. (J Biol Chem 276: 37692-9). According to this method immature dendritic cells derived from human peripheral blood are used. The outcome after incubating the cells with tested molecules is different if the stimulation is through the Toll 4 receptor or the Toll 2 receptor. According to the authors, Toll 2 signaling by stimulation with zymosan is associated with a Th2 kind of response (exemplified by IL-8) and Toll 4 signaling, such as obtained by LPS stimulation (exemplified by IP-10), with a Th1 type of response. The compositions of the present invention were tested using a similar assay system in order to check which stimulation type they induce. […] The increase in CD86 expression after exposure of APCs to Hsps or Hsp derived peptides is important since CD86 (B7.2) is an essential component of the immunological synapse formed between T cells and APC. This synapse consists of CD80 and CD86 on the side of the APC and CD28 and CD40 on the side of the T cell. T cell recognition of peptide on APC without the concurrent expression of CD86 gives rise to anergy instead of a T cell response. Therefore in order to produce a response all components must be present.
The assay was based on the protocol described by Re, F. and Strominger, J. L. 2001. Toll-like receptor 2 (Tlr2) and Tlr4 differentially activate human dendritic cells. (J. Biol Chem 276: 37692-9).
Peripheral blood mononuclear cells were prepared from leucocytes from blood lots obtained from the blood bank. The cells were plated at 10^8 cells/10 ml/Petri dish in RPMI medium including 10% FCS and allowed to adhere at 37° C. for 2 hours. At the end of this time, the non-adherent cells were washed off the plates with PBS and the adherent cells resuspended in fresh medium as before. The cells were then cultured for at least 8 days with the addition of GM-CSF and IL4 with the medium changed every 4 days. After this time, the cells were harvested and cultured overnight with LPS, zymosan or p277(Val^6-Va^11). The next day, the supernatant was collected for assay of the secreted cytokines (IP-10 and IL-8) and the cells were harvested for investigation of the cell surface antigens (CD83, CD86). CD83 is an antigen characteristic of dendritic cells. […] The second marker, CD86 (B7.2) is characteristic of mature dendritic cells. The marker CD86 is an essential component of the immunological synapse formed between T cells and APC. This synapse consists of CD80 and CD86 on the side of the APC and CD28 and CD40 on the side of the T cell. This is of course in addition to the specific recognition between the T cell receptor and peptide held in the MHC of the APC. T cell recognition of peptide on APC without the concurrent expression of CD86 gives rise to anergy instead of a T cell response.

[2] = tested on: BALB/c DO.11.10 bone marrow cells cultured for dendritic cells, cocultured with DO.11.10 T cells; assay: Education of mouse dendritic cells and stimulation of T-cells, cytokine content of supernatant; format: cell-based
Description: Whelan et al. (J. Immunol 164, 6453-6460, 2000) addressed the problem in mice by an experiment in which mouse bone marrow cells were grown for 6 days in culture with GM-CSF to give immature dendritic cells. These dendritic cells were then incubated overnight with LPS (known to drive cells to DC1) or with a nematode antigen. The reason for the choice of nematode antigen was that injection of this antigen in vivo gives rise to a Th2 response in animals. After this so-called “education” of the dendritic cells, they were washed and subsequently incubated with naive T cells in the presence of antigenic stimulus. The experiment was possible because of the use of transgenic mice in which all the T cells respond to the same peptide (OVA323-339) which absolves the system from any question of bias of the T cell response at the level of the T cells. Any bias should be a consequence of the “education” of the dendritic cells. After three days of incubation the cytokine responses produced by the T cells, were measured by ELISA. […] In contrast, nematode antigen incubation gave rise to more IL-4 (Th2) than did controls while the LPS incubation inhibited the IL4 response. Therefore, the nematode antigen was said to drive cells to DC2. A similar method was used for testing the compounds of the present invention: • 1. Bone marrow cells were extracted from the leg bones of DO.11.10 mice transgenic for the TcR. All cells from these mice respond to the OVA peptide ([…]). • 2. Bone marrow cells were plated at 10^6 cells/ml in 100 mm diameter tissue culture petri dishes in Iscove's medium supplemented with 10% FCS, […], 1 mM sodium pyruvate, penicillin/streptomycin (according to manufacturer's recommendations), non-essential amino acids, 50 μM β-mercaptoethanol and 10 ng/ml mGM-CSF. • 3. After 4 days, the medium was carefully removed and replaced with fresh medium • 4. After 6 days, the non-adherent cells were harvested and used as immature dendritic cells • 5. The immature dendritic cells are plated at 1×10^6 cells/ml, 1 ml/well in 24 well plates in the above medium with various reagents added at various concentrations and incubated overnight. This is the stage in which the dendritic cells are “educated” • 6. The next day the cells were harvested and washed 3 times then resuspended at 5×10^4 cells/ml in 1 ml of the above medium but without the addition of GM-CSF to be cocultured with T cells • 7. […] 5×10^5 T cells were cultured with the dendritic cells from step 6 in the presence of various concentrations of the OVA peptide (0, 0.3 nM, 3 nM and 30 nM). • 9. After 3 days PMA (50 ng/ml) and ionomycin (500 ng/ml) were added to further stimulate the cells. • 10. The next day the cell supernatants were collected and assayed for cytokine content (Interferon γ, IL4, IL-10 and IL-12).
The compound was tested for stimulation of DO.11.10 bone marrow cells according to the assay described above (Production and education of mouse dendritic cells and stimulation of T-cells).
BALB/c DO.11.10 bone marrow cells were cultured for dendritic cells and then stimulated with LPS 1 μg/ml, LPS 10 μg/ml, hsp60 3 μg/ml, hsp60 10 μg/ml, p277 5 μg/ml and p277 50 μg/ml. The cells were then transferred to wells with T cells from fresh BALB/c DO.11.10 mice and stimulated with OVA peptide at different concentrations (0, 0.3 nM, 3 nM, 30 nM). Supernatant was collected after 48 hours for assay. 30 μl was taken for IFN, 40 μl for IL4 and IL-10 and 50 μl for IL-12 assays. The results are presented in the following tables, as amount of cytokine (pg/ml), and in FIG. 1.

mouse monocyte line J774 = assay: Secretion of oxygen free radicals (oxidative burst) from mouse monocyte line; format: cell-based; settings: J774, FIG. 5
[3] = compared with non-exposed dendritic cells
[4] = dendritic cells educated with 1 μg/ml, 0.3 nM Ova peptide
[5] = dendritic cells educated with 10 μg/ml, 0.3 nM Ova peptide

Substance | maturation: percentage of cells stained with anti-CD86 ([1]; overnight stimulation, FIG. 3) | IL-8 ([1]; stimulus 10 ng/ml, overnight) | IP-10 ([1]; stimulus 10 ng/ml, overnight) | IFN gamma produced by T cells after treatment of dendritic cells (in words) [2, 3] | IL-4 produced by T cells after exposure of dendritic cells (in words) [2, 3] | IL-4 secretion of T cells [2, 4] | IL-10 secretion of T cells [2, 4] | IL-12 secretion of T cells [2, 4] | IFN secretion of T cells ([2]; dendritic cells educated with 1 μg/ml, T cells stimulated with 0.3 nM Ova peptide) | IFN secretion of T cells [2, 5] | IL-4 secretion of T cells [2, 5] | IL-10 secretion of T cells [2, 5] | IL-12 secretion of T cells [2, 5] | inhibition of the oxidative burst (secretion of oxygen free radicals) (mouse monocyte line J774)
lipopolysaccharide [LPS, reference compound] | increase of maturation | 3131 pg/mL | 2520 pg/mL | increased IFN gamma | decreased IL4 | 11.07 pg/mL | 15.26 pg/mL | 90.00 pg/mL | 328.33 pg/mL | 478.89 pg/mL | 1.07 pg/mL | 75.48 pg/mL | 131.25 pg/mL | 
VALLRVIPA (Homo sapien) [p277(442-450, Val^6Val^11)] |  |  |  |  |  |  |  |  |  |  |  |  |  | effective
